Measurements: ChEMBL document CHEMBL5335851, “Total Synthesis, Structure Reassignment, and Biological Evaluation of the Anti-Inflammatory Macrolactone 13-Hydroxy-14-deoxyoxacyclododecindione” (J Nat Prod, 2024)

Assays:
[1] = target: T1, Signal transducer and activator of transcription 6 (Homo sapiens, UniProt P42226); test: Inhibition of IL-4 induced STAT6 signaling in human HepG2 cells harboring pRL-EF1alpha, pGL3-TK-7xN4 and TOPO-Stat6 plasmid assessed as luciferase activity incubated for 24 hrs; assay type: cell-based
T1 sequence (P42226 whole entry): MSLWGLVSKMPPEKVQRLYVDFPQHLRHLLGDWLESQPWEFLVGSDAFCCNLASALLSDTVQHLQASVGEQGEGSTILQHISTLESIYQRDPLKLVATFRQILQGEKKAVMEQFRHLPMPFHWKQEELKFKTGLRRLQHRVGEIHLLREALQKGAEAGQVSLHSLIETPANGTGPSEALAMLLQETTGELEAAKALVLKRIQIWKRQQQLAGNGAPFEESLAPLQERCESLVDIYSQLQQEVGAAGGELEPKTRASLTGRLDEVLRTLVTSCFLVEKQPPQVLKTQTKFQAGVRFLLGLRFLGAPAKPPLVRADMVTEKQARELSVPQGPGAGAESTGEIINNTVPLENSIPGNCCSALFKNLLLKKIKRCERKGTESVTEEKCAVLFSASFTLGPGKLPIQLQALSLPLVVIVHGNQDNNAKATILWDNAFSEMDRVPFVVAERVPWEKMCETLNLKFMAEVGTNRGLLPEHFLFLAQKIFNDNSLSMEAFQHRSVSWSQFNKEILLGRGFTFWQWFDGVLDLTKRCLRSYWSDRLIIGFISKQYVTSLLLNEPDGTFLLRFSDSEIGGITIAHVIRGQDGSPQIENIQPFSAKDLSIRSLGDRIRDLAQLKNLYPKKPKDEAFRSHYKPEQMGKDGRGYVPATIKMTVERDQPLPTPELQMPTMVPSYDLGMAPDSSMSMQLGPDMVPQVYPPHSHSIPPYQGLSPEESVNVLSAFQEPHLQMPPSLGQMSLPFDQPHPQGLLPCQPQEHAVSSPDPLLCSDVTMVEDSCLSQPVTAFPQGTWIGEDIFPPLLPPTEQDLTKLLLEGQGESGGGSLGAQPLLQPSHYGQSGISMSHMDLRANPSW

[2] = target: Mothers against decapentaplegic homolog 2/homolog 3 (Homo sapiens, UniProt P84022+Q15796); test: Inhibition of TGF-beta induced Smad2/3 signaling in human HepG2 cells harboring pRL-EF1alpha, (CAGA)9x-MLP-Luc plasmid assessed as luciferase activity incubated for 24 hrs; assay type: cell-based

Row | IC50 [1] [µM] | IC50 [2] [µM] | Compound
1 | 0.068 |  | C/C1=C\CCC(C)(O)C(C)OC(=O)Cc2c(Cl)c(O)cc(O)c2C1=O (centres undefined)
2 | 0.079 |  | C/C1=C\CCC(C)(C)C(C)OC(=O)Cc2c(Cl)c(O)cc(O)c2C1=O (centres undefined)
3 | 0.02 |  | C/C1=C\CC[C@H](C)[C@@H](C)OC(=O)Cc2c(Cl)c(O)cc(O)c2C1=O
4 |  | 0.14 | C/C1=C\C[C@H](O)[C@H](C)[C@H](C)OC(=O)Cc2c(Cl)c(O)cc(O)c2C1=O
5 |  | 0.068 | C/C1=C/C[C@H](O)[C@H](C)[C@@H](C)OC(=O)Cc2c(Cl)c(O)cc(O)c2C1=O

The next lines start with the compound.

Row | Compound | IC50 [1] [µM] | IC50 [2] [µM]
6 | C/C1=C\C[C@@H](O)[C@H](C)[C@@H](C)OC(=O)Cc2c(Cl)c(O)cc(O)c2C1=O | 0.056 | 
7 | C/C1=C\C[C@@H](O)[C@H](C)[C@H](C)OC(=O)Cc2c(Cl)c(O)cc(O)c2C1=O |  | 0.24
8 | C/C1=C/C[C@@H](O)[C@H](C)[C@@H](C)OC(=O)Cc2c(Cl)c(O)cc(O)c2C1=O |  | 0.1
9 | C/C1=C\C[C@H](O)[C@H](C)[C@@H](C)OC(=O)Cc2c(Cl)c(O)cc(O)c2C1=O |  | 0.068
